Measured values reported in the supplement of paper PMC4932681.

Tests used:
MCF-7 Tam1 [1] = assay: relative IC50 (midpoint of fitted logistic curve, plateau may be below 50% inhibition; CellTiter-Glo viability); higher = less potent; settings: 4-OH-tamoxifen in medium 1 µM; 72 h
Procedure: (§1)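 FIMM FO2B library drugs were plated at 5 concentrations spanning a 10,000-fold range in 384-well plates. Cells were incubated for 72 h at 37 °C and viability was read by CellTiter-Glo, normalised to DMSO (0% inhibition) and 100 µM benzethonium chloride (100% inhibition). IC50 values come from logistic dose-response fits (Breeze pipeline). Tamoxifen-resistant lines and the 'in 1µM tamoxifen' parental arms were tested in medium with 1 µM 4-OH-tamoxifen.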

ZR-75-1 [2] = assay: as above; settings: 72 h
Procedure: as §1

ZR-75-1 Tam2 [3] = assay: as above; settings: 4-OH-tamoxifen in medium 1 µM; 72 h
Procedure: as §1

BT-474 Tam2 [4] = assay: as above; settings: 4-OH-tamoxifen in medium 1 µM; 72 h
Procedure: as §1

BT-474 Tam1 [5] = assay: as above; settings: 4-OH-tamoxifen in medium 1 µM; 72 h
Procedure: as §1

T-47D Tam1 [6] = assay: as above; settings: 4-OH-tamoxifen in medium 1 µM; 72 h
Procedure: as §1

BT-474 [7] = assay: as above; settings: 72 h
Procedure: as §1

T-47D [8] = assay: as above; settings: 72 h
Procedure: as §1

MCF-7 [9] = assay: as above; settings: 72 h
Procedure: as §1

MCF-7 Tam1 [10] = assay: drug sensitivity score (DSS) (DSS (dimensionless)); higher = more sensitive; extreme values may be limits of the assay; settings: 4-OH-tamoxifen in medium 1 µM; 72 h
Procedure: (§2)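 FIMM FO2B library drugs were tested at 5 concentrations (10,000-fold range) for 72 h, with CellTiter-Glo viability normalised to DMSO and benzethonium chloride controls. The Drug Sensitivity Score (DSS) is computed from the fitted logistic dose-response curve (area-based; 0 = inactive). Resistant lines and the 'in 1µM tamoxifen' arms were tested in 1 µM 4-OH-tamoxifen.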

ZR-75-1 [11] = assay: as above; settings: 72 h
Procedure: as §2

ZR-75-1 Tam2 [12] = assay: as above; settings: 4-OH-tamoxifen in medium 1 µM; 72 h
Procedure: as §2

T-47D Tam2 = assay: as above; settings: 4-OH-tamoxifen in medium 1 µM; 72 h
Procedure: as §2

BT-474 Tam2 [13] = assay: as above; settings: 4-OH-tamoxifen in medium 1 µM; 72 h
Procedure: as §2

BT-474 Tam1 [14] = assay: as above; settings: 4-OH-tamoxifen in medium 1 µM; 72 h
Procedure: as §2

T-47D Tam1 [15] = assay: as above; settings: 4-OH-tamoxifen in medium 1 µM; 72 h
Procedure: as §2

BT-474 [16] = assay: as above; settings: 72 h
Procedure: as §2

ZR-75-1 Tam1 [17] = assay: as above; settings: 4-OH-tamoxifen in medium 1 µM; 72 h
Procedure: as §2

T-47D [18] = assay: as above; settings: 72 h
Procedure: as §2

MCF-7 [19] = assay: as above; settings: 72 h
Procedure: as §2

ZR-75-1 Tam1 [20] = assay: relative IC50 (midpoint of fitted logistic curve, plateau may be below 50% inhibition; CellTiter-Glo viability); higher = less potent; settings: 4-OH-tamoxifen in medium 1 µM; 72 h
Procedure: as §1

| SMILES | relative IC50 (MCF-7 Tam1 [1]) [nM] | relative IC50 (BT-474 Tam2 [4]) [nM] | relative IC50 (BT-474 Tam1 [5]) [nM] | relative IC50 (T-47D Tam1 [6]) [nM] | relative IC50 (BT-474 [7]; 4-OH-tamoxifen in medium 0 µM) [nM] | relative IC50 (BT-474 [7]; 4-OH-tamoxifen in medium 1 µM) [nM] | relative IC50 (T-47D [8]; 4-OH-tamoxifen in medium 0 µM) [nM] | relative IC50 (T-47D [8]; 4-OH-tamoxifen in medium 1 µM) [nM] | relative IC50 (MCF-7 [9]; 4-OH-tamoxifen in medium 0 µM) [nM] | relative IC50 (MCF-7 [9]; 4-OH-tamoxifen in medium 1 µM) [nM] | relative IC50 (ZR-75-1 [2]; 4-OH-tamoxifen in medium 0 µM) [nM] | relative IC50 (ZR-75-1 [2]; 4-OH-tamoxifen in medium 1 µM) [nM] | relative IC50 (ZR-75-1 Tam2 [3]) [nM] | drug sensitivity score (MCF-7 Tam1 [10]) | drug sensitivity score (ZR-75-1 [11]; 4-OH-tamoxifen in medium 0 µM) | drug sensitivity score (ZR-75-1 [11]; 4-OH-tamoxifen in medium 1 µM) | drug sensitivity score (ZR-75-1 Tam2 [12]) | drug sensitivity score (T-47D Tam2) | drug sensitivity score (BT-474 Tam2 [13]) | drug sensitivity score (BT-474 Tam1 [14]) | drug sensitivity score (T-47D Tam1 [15]) | drug sensitivity score (BT-474 [16]; 4-OH-tamoxifen in medium 0 µM) | drug sensitivity score (BT-474 [16]; 4-OH-tamoxifen in medium 1 µM) | drug sensitivity score (ZR-75-1 Tam1 [17]) | drug sensitivity score (T-47D [18]; 4-OH-tamoxifen in medium 0 µM) | drug sensitivity score (T-47D [18]; 4-OH-tamoxifen in medium 1 µM) | drug sensitivity score (MCF-7 [19]; 4-OH-tamoxifen in medium 0 µM) | drug sensitivity score (MCF-7 [19]; 4-OH-tamoxifen in medium 1 µM) | relative IC50 (ZR-75-1 Tam1 [20]) [nM] |
| --- | --- | --- | --- | --- | --- | --- | --- | --- | --- | --- | --- | --- | --- | --- | --- | --- | --- | --- | --- | --- | --- | --- | --- | --- | --- | --- | --- | --- | --- |
| NC(=O)c1ccc(I)c([N+](=O)[O-])c1 | > 10000 | > 10000 | > 10000 | > 10000 | > 10000 | > 10000 | > 10000 | > 10000 | > 10000 | > 10000 | > 10000 | > 10000 | > 10000 | 0 | 0 | 0 | 0 | 0.229 | 0 | 0 | 0 | 0 | 0 | 0 | 0 | 0 | 0 | 0 |  |
| CCCCC/C=C/C=C1/C(=O)C=C[C@@H]1C/C=C\CCCC(=O)O [15D-PGJ2] | > 800 | > 800 | > 800 | > 800 | > 800 | > 800 | > 800 | > 800 | > 800 | > 800 | > 800 | > 800 | > 800 | 0 | 0 | 0 | 0 | 0.598 | 0 | 0 | 0 | 0 | 0 | 0 | 0 | 0 | 0 | 0 | > 800 |
| COc1cc2nccc(Oc3ccc(NC(=O)C4(C(=O)Nc5ccc(F)cc5)CC4)cc3)c2cc1OC [Cabozantinib (XL184)] | > 1000 | > 1000 |  | > 1000 | > 1000 |  | > 1000 | > 1000 | > 1000 |  | > 1000 | > 1000 | > 1000 | 0 | 0 | 0 | 0 | 0.0065 | 0 | 0.113 | 0 | 0 | 0.138 | 0.0383 | 0 | 0 | 0 | 0.282 |  |
| C=C1C[C@@H]2[C@H](CC[C@]3(C)C(=O)CC[C@@H]23)[C@@]2(C)C=CC(=O)C=C12 [Exemestane] | > 10000 | > 10000 | > 10000 | > 10000 | > 10000 | > 10000 | > 10000 | > 10000 |  |  | > 10000 | > 10000 | > 10000 | 0 | 0 | 0 | 0 | 0.965 | 0 | 0 | 0 | 0 | 0 | 0 | 0 | 0 | 1.3 | 0 | > 10000 |
| Cc1ccc(NC(=O)c2ccc(CN3CCN(C)CC3)cc2)cc1Nc1nccc(-c2cccnc2)n1 [Imatinib] | > 10000 |  | 4030 | > 10000 | > 10000 |  |  | > 10000 | > 10000 |  | > 10000 |  | > 10000 | 0 | 0 | 0.933 | 0 | 0.454 | 1.21 | 1.97 | 0 | 0 | 0.471 | 0 | 0 | 0 | 0 | 0 | > 10000 |

The next lines start with results.

| relative IC50 (MCF-7 Tam1 [1]) [nM] | relative IC50 (BT-474 Tam2 [4]) [nM] | relative IC50 (BT-474 Tam1 [5]) [nM] | relative IC50 (T-47D Tam1 [6]) [nM] | relative IC50 (BT-474 [7]; 4-OH-tamoxifen in medium 0 µM) [nM] | relative IC50 (BT-474 [7]; 4-OH-tamoxifen in medium 1 µM) [nM] | relative IC50 (T-47D [8]; 4-OH-tamoxifen in medium 0 µM) [nM] | relative IC50 (T-47D [8]; 4-OH-tamoxifen in medium 1 µM) [nM] | relative IC50 (MCF-7 [9]; 4-OH-tamoxifen in medium 0 µM) [nM] | relative IC50 (MCF-7 [9]; 4-OH-tamoxifen in medium 1 µM) [nM] | SMILES | relative IC50 (ZR-75-1 [2]; 4-OH-tamoxifen in medium 0 µM) [nM] | relative IC50 (ZR-75-1 [2]; 4-OH-tamoxifen in medium 1 µM) [nM] | relative IC50 (ZR-75-1 Tam2 [3]) [nM] | drug sensitivity score (MCF-7 Tam1 [10]) | drug sensitivity score (ZR-75-1 [11]; 4-OH-tamoxifen in medium 0 µM) | drug sensitivity score (ZR-75-1 [11]; 4-OH-tamoxifen in medium 1 µM) | drug sensitivity score (ZR-75-1 Tam2 [12]) | drug sensitivity score (T-47D Tam2) | drug sensitivity score (BT-474 Tam2 [13]) | drug sensitivity score (BT-474 Tam1 [14]) | drug sensitivity score (T-47D Tam1 [15]) | drug sensitivity score (BT-474 [16]; 4-OH-tamoxifen in medium 0 µM) | drug sensitivity score (BT-474 [16]; 4-OH-tamoxifen in medium 1 µM) | drug sensitivity score (ZR-75-1 Tam1 [17]) | drug sensitivity score (T-47D [18]; 4-OH-tamoxifen in medium 0 µM) | drug sensitivity score (T-47D [18]; 4-OH-tamoxifen in medium 1 µM) | drug sensitivity score (MCF-7 [19]; 4-OH-tamoxifen in medium 0 µM) | drug sensitivity score (MCF-7 [19]; 4-OH-tamoxifen in medium 1 µM) | relative IC50 (ZR-75-1 Tam1 [20]) [nM] |
| --- | --- | --- | --- | --- | --- | --- | --- | --- | --- | --- | --- | --- | --- | --- | --- | --- | --- | --- | --- | --- | --- | --- | --- | --- | --- | --- | --- | --- | --- |
| > 10000 | > 10000 |  | > 10000 | > 10000 | > 10000 | > 10000 | > 10000 |  | > 10000 | Cc1ccc(-c2cc(C(F)(F)F)nn2-c2ccc(S(N)(=O)=O)cc2)cc1 [Celecoxib] | > 10000 |  | > 10000 | 0 | 0 | 0.0083 | 0 | 0.335 | 0 | 0.0337 | 0 | 0 | 0 | 0 | 0 | 0 | 0.0979 | 0 | > 10000 |
| 52.7 |  | 86.3 | 7.44 |  | 60.9 | 27.8 | 117 | 6.68 | 8.94 | Cn1c(=O)n(-c2ccc(C(C)(C)C#N)cc2)c2c3cc(-c4cnc5ccccc5c4)ccc3ncc21 [Dactolisib (NVP-BEZ235)] | 9.3 | 9.17 | 13.9 | 3.91 | 12.9 | 10.4 | 12.6 | 4.46 | 4.69 | 4.98 | 13.4 | 6.54 | 5.55 | 12.4 | 10.4 | 7.65 | 18.3 | 11.4 | 7.16 |
